21 compounds from patent US20250171457A1, “NITROGEN-CONTAINING HETEROCYCLIC COMPOUND HAVING NRF2 ACTIVATION EFFECT” (CHUGAI SEIYAKU KABUSHIKI KAISHA, priority 2022, published 2025) can be followed below.

This assay concerns Nrf2 transcriptional activity (pARE-Luc reporter) in HepG2 cells. In words: In vitro Nrf2 transcriptional activity measurement by ARE-dependent reporter assay in HepG2 cell. Format: cell-based, human. The note with it: Homo sapiens; HepG2 cells transfected with pARE-Luc, 4 hours at 37° C.; luciferase activity of Example 1-54 or Example 17-23 at 3.75 μM defined as 100%. Put shortly:
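Luminescence readout (Bright-Glo) after 4 h, 37° C compound exposure of HepG2 cells carrying the ARE-luciferase vector pGL4.37. Each well converted to % response versus reference compound at 3.75 μM, and EC50 derived from dose-response curves.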
On the technique in general: Reporter assays use an easily measured gene product as a stand-in for the process of interest.

`COCCN1CC2CCC(C1)N2c1cc(Cl)c(C(=O)N2COc3c(cccc3-c3cc(N4C5CCC4COC5)c(C(=O)O)cc3F)C2)c(Cl)c1` [Compound 7-12, 4-[3-[2,6-Dichloro-4-[3-(2-methoxyethyl)-3,8-diazabicyclo[3.2.1]octan-8-yl]benzoyl]-2,4-dihydro-1,3-benzoxazin-8-yl]-5-fluoro-2-(3-oxa-8-azabicyclo[3.2.1]octan-8-yl)benzoic acid] registered an EC50 of 2.3 nM.

`O=C(O)c1cc(F)c(-c2cccc3c2OCN(C(=O)c2c(Cl)cc(N4CC5CCC(C4)N5CC(F)F)cc2Cl)C3)cc1N1C2CCC1COC2` [Compound 7-13, 4-[3-[2,6-Dichloro-4-[8-(2,2-difluoroethyl)-3,8-diazabicyclo[3.2.1]octan-3-yl]benzoyl]-2,4-dihydro-1,3-benzoxazin-8-yl]-5-fluoro-2-(3-oxa-8-azabicyclo[3.2.1]octan-8-yl)benzoic acid]: the response was half-maximal at 5.7 nM (EC50).

On to `COCCN1C2CC1CN(c1cc(Cl)c(C(=O)N3COc4c(cccc4-c4cc(N5C6CCC5COC6)c(C(=O)O)cc4F)C3)c(Cl)c1)C2` [Compound 7-14, 4-[3-[2,6-Dichloro-4-[6-(2-methoxyethyl)-3,6-diazabicyclo[3.1.1]heptan-3-yl]benzoyl]-2,4-dihydro-1,3-benzoxazin-8-yl]-5-fluoro-2-(3-oxa-8-azabicyclo[3.2.1]octan-8-yl)benzoic acid], for which a half-maximal effect (EC50) was put at 24 nM.

For `O=C(O)c1cc(F)c(-c2cccc3c2OCN(C(=O)c2c(Cl)cc(N4CC5CCC(C4)N5CC4(F)COC4)cc2Cl)C3)cc1N1C2CCC1COC2` [Compound 7-15, 4-[3-[2,6-Dichloro-4-[8-[(3-fluorooxetan-3-yl)methyl]-3,8-diazabicyclo[3.2.1]octan-3-yl]benzoyl]-2,4-dihydro-1,3-benzoxazin-8-yl]-5-fluoro-2-(3-oxa-8-azabicyclo[3.2.1]octan-8-yl)benzoic acid], the EC50 amounted to 2.5 nM.

In turn, `COCCN1C[C@H]2CC[C@@H]1CN2c1cc(Cl)c(C(=O)N2COc3c(cccc3-c3cc(N4C5CCC4COC5)c(C(=O)O)cc3F)C2)c(Cl)c1` [Compound 7-16, 4-[3-[2,6-Dichloro-4-[(1R,4R)-5-(2-methoxy-ethyl)-2,5-diazabicyclo[2.2.2]octan-2-yl]benzoyl]-2,4-dihydro-1,3-benzoxazin-8-yl]-5-fluoro-2-(3-oxa-8-azabicyclo[3.2.1]octan-8-yl)benzoic acid] gave a half-maximal effective concentration (EC50) of 7.4 nM.

For `COCCN1C[C@@H]2CC[C@H]1CN2c1cc(Cl)c(C(=O)N2COc3c(cccc3-c3cc(N4C5CCC4COC5)c(C(=O)O)cc3F)C2)c(Cl)c1` [Compound 7-17, 4-[3-[2,6-Dichloro-4-[(1S,4S)-5-(2-methoxy-ethyl)-2,5-diazabicyclo[2.2.2]octan-2-yl]benzoyl]-2,4-dihydro-1,3-benzoxazin-8-yl]-5-fluoro-2-(3-oxa-8-azabicyclo[3.2.1]octan-8-yl)benzoic acid], the midpoint of the response, the EC50, lay at 9 nM.

In the case of `COCC(COC)N1C2CCC1CN(c1cc(Cl)c(C(=O)N3COc4c(cccc4-c4cc(N5C6CCC5COC6)c(C(=O)O)cc4F)C3)c(Cl)c1)C2` [Compound 7-18, 4-[3-[2,6-Dichloro-4-[8-(1,3-dimethoxypropan-2-yl)-3,8-diazabicyclo[3.2.1]octan-3-yl]benzoyl]-2,4-dihydro-1,3-benzoxazin-8-yl]-5-fluoro-2-(3-oxa-8-azabicyclo[3.2.1]octan-8-yl)benzoic acid], the EC50 was found to be 1.7 nM.

Regarding `COCCN1CCC2(C1)CN(c1cc(Cl)c(C(=O)N3COc4c(cccc4-c4cc(N5C6CCC5COC6)c(C(=O)O)cc4F)C3)c(Cl)c1)C2` [Compound 8-1, 4-[3-[2,6-Dichloro-4-[7-(2-methoxyethyl)-2,7-diazaspiro[3.4]octan-2-yl]benzoyl]-2,4-dihydro-1,3-benzoxazin-8-yl]-5-fluoro-2-(3-oxa-8-azabicyclo[3.2.1]octan-8-yl)benzoic acid], a half-maximal response (EC50) required 1.6 nM.

`O=C(O)c1cc(F)c(-c2cccc3c2OCN(C(=O)c2c(Cl)cc(N4CCN(CC(F)F)CC4)cc2Cl)C3)cc1N1C2CCC1COC2` [Compound 8-2, 4-[3-[2,6-Dichloro-4-[4-(2,2-difluoroethyl)piperazin-1-yl]benzoyl]-2,4-dihydro-1,3-benzoxazin-8-yl]-5-fluoro-2-(3-oxa-8-azabicyclo[3.2.1]octan-8-yl)benzoic acid]: the concentration for a half-maximal effect (EC50) is 4 nM.

The compound `COCCN1CCN(c2cc(Cl)c(C(=O)N3COc4c(cccc4-c4cc(N5C6CCC5COC6)c(C(=O)O)cc4F)C3)c(Cl)c2)CC1(C)C` [Compound 8-3, 4-[3-[2,6-Dichloro-4-[4-(2-methoxyethyl)-3,3-dimethylpiperazin-1-yl]benzoyl]-2,4-dihydro-1,3-benzoxazin-8-yl]-5-fluoro-2-(3-oxa-8-azabicyclo[3.2.1]octan-8-yl)benzoic acid] came in with an EC50 of 2.6 nM.

`COCCN1[C@H](C)CN(c2cc(Cl)c(C(=O)N3COc4c(cccc4-c4cc(N5C6CCC5COC6)c(C(=O)O)cc4F)C3)c(Cl)c2)C[C@@H]1C` [Compound 8-4, 4-[3-[2,6-Dichloro-4-[meso-4-(2-methoxyethyl)-3,5-dimethylpiperazin-1-yl]benzoyl]-2,4-dihydro-1,3-benzoxazin-8-yl]-5-fluoro-2-(3-oxa-8-azabicyclo[3.2.1]octan-8-yl)benzoic acid] showed an EC50 of 3.6 nM.

Compound `COCCN1CCN(c2cc(Cl)c(C(=O)N3COc4c(cccc4-c4cc(N5C6CCC5COC6)c(C(=O)O)cc4F)C3)c(Cl)c2)CC1C` [Compound 8-5, 4-[3-[2,6-Dichloro-4-[(3S)-4-(2-methoxyethyl)-3-methylpiperazan-1-yl]benzoyl]-2,4-dihydro-1,3-benzoxazin-8-yl]-5-fluoro-2-(3-oxa-8-azabicyclo[3.2.1]octan-8-yl)benzoic acid] came in with an EC50 of 2.4 nM.

The compound `COCCN1CC[C@H](Oc2cc(Cl)c(C(=O)N3COc4c(cccc4-c4cc(N5CCOCC5)c(C(=O)O)cc4F)C3)c(Cl)c2)C1` [Compound 8-6, 4-[3-[2,6-Dichloro-4-[(3S)-1-(2-methoxyethyl)pyrrolidin-3-yl]oxybenzoyl]-2,4-dihydro-1,3-benzoxazin-8-yl]-5-fluoro-2-morpholin-4-ylbenzoic acid] had an EC50 of 2.7 nM.

`COCCN1CCC[C@@H](Oc2cc(Cl)c(C(=O)N3COc4c(cccc4-c4cc(N5CCOCC5)c(C(=O)O)cc4F)C3)c(Cl)c2)C1` [Compound 8-7, 4-[3-[2,6-Dichloro-4-[(3R)-1-(2-methoxyethyl)piperidin-3-yl]oxybenzoyl]-2,4-dihydro-1,3-benzoxazin-8-yl]-5-fluoro-2-morpholin-4-ylbenzoic acid]: it took 2.1 nM to reach a half-maximal effect (EC50).

`O=C(O)c1cc(F)c(-c2cccc3c2OCN(C(=O)c2c(Cl)cc(OC4CN(CC(F)(F)F)C4)cc2Cl)C3)cc1N1C2CCC1COC2` [Compound 8-8, 4-[3-[2,6-Dichloro-4-[1-(2,2,2-trifluoroethyl)azetidin-3-yl]oxybenzoyl]-2,4-dihydro-1,3-benzoxazin-8-yl]-5-fluoro-2-(3-oxa-8-azabicyclo[3.2.1]octan-8-yl)benzoic acid] yielded an EC50 of 4.8 nM.

Turning to `COCCN1CC2(CCN(c3cc(Cl)c(C(=O)N4COc5c(cccc5-c5cc(N6C7CCC6COC7)c(C(=O)O)cc5F)C4)c(Cl)c3)C2)C1` [Compound 8-9, 4-[3-[2,6-Dichloro-4-[2-(2-methoxyethyl)-2,7-diazaspiro[3.4]octan-7-yl]benzoyl]-2,4-dihydro-1,3-benzoxazin-8-yl]-5-fluoro-2-(3-oxa-8-azabicyclo[3.2.1]octan-8-yl)benzoic acid], the EC50 amounted to 9.5 nM.

`CN1CCOC2(C1)CN(c1cc(Cl)c(C(=O)N3COc4c(cccc4-c4cc(N5C6CCC5COC6)c(C(=O)O)cc4F)C3)c(Cl)c1)C2` [Compound 9-1, 4-[3-[2,6-Dichloro-4-(8-methyl-5-oxa-2,8-diazaspiro[3.5]nonan-2-yl)benzoyl]-2,4-dihydro-1,3-benzoxazin-8-yl]-5-fluoro-2-(3-oxa-8-azabicyclo[3.2.1]octan-8-yl)benzoic acid] registered an EC50 of 3.5 nM.

Compound `O=C(O)c1cc(F)c(-c2cccc3c2OCN(C(=O)c2c(Cl)cc(N4CC5(C4)CN(C4CC(F)(F)C4)C5)cc2Cl)C3)cc1N1C2CCC1COC2` [Compound 9-2, 4-[3-[2,6-Dichloro-4-[2-(3,3-difluorocyclobutyl)-2,6-diazaspiro[3.3]heptan-6-yl]benzoyl]-2,4-dihydro-1,3-benzoxazin-8-yl]-5-fluoro-2-(3-oxa-8-azabicyclo[3.2.1]octan-8-yl)benzoic acid] showed an EC50 of 7.4 nM.

Regarding `O=C(O)c1cc(F)c(-c2cccc3c2OCN(C(=O)c2c(Cl)cc(N4CC5(C4)CN(C4COC4)C5)cc2Cl)C3)cc1N1C2CCC1COC2` [Compound 9-3, 4-[3-[2,6-Dichloro-4-[2-(oxetan-3-yl)-2,6-diazaspiro[3.3]heptan-6-yl]benzoyl]-2,4-dihydro-1,3-benzoxazin-8-yl]-5-fluoro-2-(3-oxa-8-azabicyclo[3.2.1]octan-8-yl)benzoic acid], the EC50 was determined as 19 nM.

Regarding `O=C(O)c1cc(F)c(-c2cccc3c2OCN(C(=O)c2c(Cl)cc(N4CC5(C4)CN(C4CC4)C5)cc2Cl)C3)cc1N1C2CCC1COC2` [Compound 9-4, 4-[3-[2,6-Dichloro-4-(2-cyclopropyl-2,6-diazaspiro[3.3]heptan-6-yl)benzoyl]-2,4-dihydro-1,3-benzoxazin-8-yl]-5-fluoro-2-(3-oxa-8-azabicyclo[3.2.1]octan-8-yl)benzoic acid], the EC50 worked out at 7.5 nM.

For the compound `CN1CCN(c2cc(Cl)c(C(=O)N3COc4c(cccc4-c4cc(N5C6CCC5COC6)c(C(=O)O)cc4F)C3)c(Cl)c2)C2CC21` (stereo not drawn) [Compound 9-5, 4-[3-[2,6-Dichloro-4-(5-methyl-2,5-diazabicyclo[4.1.0]heptan-2-yl)benzoyl]-2,4-dihydro-1,3-benzoxazin-8-yl]-5-fluoro-2-(3-oxa-8-azabicyclo[3.2.1]octan-8-yl)benzoic acid], the EC50 amounted to 4.6 nM.

Broadly, the EC50 is the concentration that produces a half-maximal response. A lower EC50 goes with a more potent agent.
